Measurements reported in patent US9096591B2, “Tetracyclic compounds” (Medivation Technologies, Inc., priority 2007, dated 2015).

Columns and labels:
[1] = biological target: T1, human recombinant adrenergic α1D receptor (Homo sapiens, UniProt P25100); experiment: Adrenergic α1D radioligand binding ([3H]Prozosin); set-up: Inhibition of ligand binding, Adren. alpha1D: concentration or dose not given beside the values; settings: percent inhibition of specific binding
T1 construct: expressed in transfected cells; host or cells: HEK-293 cells
T1 sequence (P25100 1-572): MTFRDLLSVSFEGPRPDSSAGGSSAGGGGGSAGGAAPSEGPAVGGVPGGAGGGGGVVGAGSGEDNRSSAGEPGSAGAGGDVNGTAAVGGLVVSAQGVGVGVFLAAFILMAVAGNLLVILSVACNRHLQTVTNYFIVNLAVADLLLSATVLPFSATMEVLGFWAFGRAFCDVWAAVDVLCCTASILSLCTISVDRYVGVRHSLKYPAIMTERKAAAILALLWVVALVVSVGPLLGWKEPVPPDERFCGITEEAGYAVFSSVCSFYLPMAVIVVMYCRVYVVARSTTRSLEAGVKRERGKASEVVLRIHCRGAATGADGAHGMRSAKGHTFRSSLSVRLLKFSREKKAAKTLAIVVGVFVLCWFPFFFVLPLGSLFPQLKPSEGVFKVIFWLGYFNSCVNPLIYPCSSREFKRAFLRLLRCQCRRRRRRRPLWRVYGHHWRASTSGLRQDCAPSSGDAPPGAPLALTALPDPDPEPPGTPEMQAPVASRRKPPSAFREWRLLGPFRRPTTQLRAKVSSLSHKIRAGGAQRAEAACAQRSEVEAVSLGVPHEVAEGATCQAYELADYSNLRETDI
Method: Compounds of invention were incubated with 0.6 nM [^3H]Prozosin for 60 minutes at 25° C. Non-specific binding was estimated in the presence of 10 μM phentolamine. Receptor proteins were filtered and washed, the filters were then counted to determine [^3H]Prozosin specifically bound. […] Biochemical assay results are presented as the percent inhibition of specific binding in Table 6.

[2] = biological target: T2, human recombinant adrenergic α2A receptor (Homo sapiens, UniProt P08913); experiment: Adrenergic α2A radioligand binding ([3H]MK-912); set-up: Inhibition of ligand binding, Adren. alpha2A: concentration or dose not given beside the values; settings: percent inhibition of specific binding
T2 construct: expressed in transfected cells; host or cells: insect Sf9 cells
T2 sequence (P08913 1-465): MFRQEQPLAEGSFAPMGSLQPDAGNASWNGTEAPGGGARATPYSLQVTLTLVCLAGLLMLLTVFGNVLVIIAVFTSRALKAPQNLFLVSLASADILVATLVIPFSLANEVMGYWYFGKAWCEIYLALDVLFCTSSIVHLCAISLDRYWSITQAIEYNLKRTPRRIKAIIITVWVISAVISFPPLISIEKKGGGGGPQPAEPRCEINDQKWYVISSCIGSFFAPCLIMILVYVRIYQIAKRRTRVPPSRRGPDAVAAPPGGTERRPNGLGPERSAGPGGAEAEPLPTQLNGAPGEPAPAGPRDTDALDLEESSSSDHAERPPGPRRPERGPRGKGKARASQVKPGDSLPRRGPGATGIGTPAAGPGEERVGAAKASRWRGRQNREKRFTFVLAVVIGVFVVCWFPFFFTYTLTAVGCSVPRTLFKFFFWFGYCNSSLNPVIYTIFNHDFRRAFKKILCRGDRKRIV
Procedure, shortened: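 Membranes from Sf9 cells expressing the receptor were incubated with 1 nM [3H]MK-912 for 60 minutes at 25° C in 50 mM Tris-HCl pH 7.4, 12.5 mM MgCl2, 2 mM EDTA. 10 μM WB-4101 defined non-specific binding. Values are percent inhibition of specific bound radioactivity after filtration.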

[3] = system: synaptosomes of cortex of rat brain; experiment: Glutamate-induced 45Ca2+ uptake into synaptosomes; format: biochemical, Wistar rats; settings: for % Ca of control (control-100%), glutamate-induced 45Ca2+ uptake into synaptosomes: rat cortex synaptosomes
Procedure, shortened: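 Cortical synaptosomes (P2 fraction) from 9-10-day-old Wistar rats, ~1.5-2 mg/ml protein in HEPES-buffered saline with glucose, pH 7.4, stimulated 5 min with 200 μM glutamate at 37° C. 45Ca2+ uptake measured by filtration and scintillation counting; specific uptake with compound expressed as percentage of glutamate-induced uptake, each corrected for unstimulated uptake.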

CN1CCc2c(c3cc(Cl)ccc3n2CCc2ccc(C(F)(F)F)nc2)C1 [Compound 250]
Inhibition of ligand binding, Adren. alpha1D [1]: 93%
Inhibition of ligand binding, Adren. alpha2A [2]: 91%

CN1CCc2c(c3cc(Cl)ccc3n2CCc2nc(-c3ccccc3)cs2)C1 [Compound C1-8]
inhibition of glutamate-induced 45Ca2+ uptake into synaptosomes ([3]; 1-5 μM): ~14%
glutamate-induced 45Ca2+ uptake into synaptosomes of rat cortex, % of control ([3]; 50-100 μM): 122%
% Ca of control (control-100%), glutamate-induced 45Ca2+ uptake into synaptosomes ([3]; compound 0.1 μM): 99.2 ± 1.4%
% Ca of control (control-100%), glutamate-induced 45Ca2+ uptake into synaptosomes ([3]; compound 0.5 μM): 96.7 ± 2.4%
% Ca of control (control-100%), glutamate-induced 45Ca2+ uptake into synaptosomes ([3]; compound 1 μM): 86.1 ± 0.1%
% Ca of control (control-100%), glutamate-induced 45Ca2+ uptake into synaptosomes ([3]; compound 5 μM): 87.7 ± 2.7%
% Ca of control (control-100%), glutamate-induced 45Ca2+ uptake into synaptosomes ([3]; compound 10 μM): 99.3 ± 3.0%
% Ca of control (control-100%), glutamate-induced 45Ca2+ uptake into synaptosomes ([3]; compound 50 μM): 122.4 ± 1.6%
% Ca of control (control-100%), glutamate-induced 45Ca2+ uptake into synaptosomes ([3]; compound 100 μM): 121.7 ± 13.9%

Cc1ccc2c(c1)c1c(n2CCc2ccc(C)nc2)CCN(C)C1 [Dimebon, dimebon, reference compound]
Inhibition of ligand binding, Adren. alpha1D [1]: 91%
Inhibition of ligand binding, Adren. alpha2A [2]: 91%
concentration at which glutamate-induced 45Ca2+ uptake into synaptosomes was inhibited [3]: 0.25 to 10 µM
inhibition of glutamate-induced 45Ca2+ uptake into synaptosomes ([3]; 1 μM (maximal inhibition)): 40%
glutamate-induced 45Ca2+ uptake into synaptosomes of rat cortex, % Ca of control (control-100%) ([3]; C 0.1 μM): 120 ± 3.3%
glutamate-induced 45Ca2+ uptake into synaptosomes of rat cortex, % Ca of control (control-100%) ([3]; C 0.1 μM, listed as dimebon): 120.4%
glutamate-induced 45Ca2+ uptake into synaptosomes of rat cortex, % Ca of control (control-100%) ([3]; C 0.5 μM): 64.4 ± 12.4%
glutamate-induced 45Ca2+ uptake into synaptosomes of rat cortex, % Ca of control (control-100%) ([3]; C 1.0 μM): 61.3 ± 8.1%
glutamate-induced 45Ca2+ uptake into synaptosomes of rat cortex, % Ca of control (control-100%) ([3]; C 5.0 μM): 83.2 ± 4.1%
glutamate-induced 45Ca2+ uptake into synaptosomes of rat cortex, % Ca of control (control-100%) ([3]; C 10 μM): 89.3 ± 1.2%
glutamate-induced 45Ca2+ uptake into synaptosomes of rat cortex, % Ca of control (control-100%) ([3]; C 25 μM): 97.2 ± 8.5%
glutamate-induced 45Ca2+ uptake into synaptosomes of rat cortex, % Ca of control (control-100%) ([3]; C 50 μM): 98.7 ± 8.8%
glutamate-induced 45Ca2+ uptake into synaptosomes of rat cortex, % Ca of control (control-100%) ([3]; C 100 μM): 132 ± 2.9%
glutamate-induced 45Ca2+ uptake into synaptosomes of rat cortex, % Ca of control (control-100%) ([3]; C 100 μM, listed as dimebon): 132%
